Laboratory results as given in patent US9388126B2, “Sigma receptor ligands and methods of modulating cellular protein homeostasis using same” (Drexel University, priority 2012, dated 2016).

Assays:
Assay type in all cases: cell-based, human
MDA-MB-468 cells = assay: Cell death by trypan blue exclusion; settings: 10 μM with bortezomib 1, 10, 100 nM, 20 hours
Experimental: Trypan blue exclusion and propidium iodide staining were used to quantify general cell death and the presence of apoptotic cell death was confirmed by immunoblot. The percentage of dead cells in a given population was determined by quantifying the number of trypan blue positive (dead) cells and dividing by the total number of trypan blue positive and negative cells.

[1] = tested on: MDA-MB-468 and T47D breast adenocarcinoma cells; assay: Translational arrest immunoblot (P-S6K, P-4E-BP1); settings: 10 μM, 16 hours
Experimental: FIG. 57A is an image of an immunoblot illustrating MDA-MB-468 breast adenocarcinoma cells treated for 16 hours with 10 μM of JMS-51-58. FIG. 57B is an image of an immunoblot illustrating T47D breast adenocarcinoma cells treated for 16 hours with 10 μM of JMS-51-58. The levels of phosphothreonine 389-p70S6Kinase (P-S6K) and phosphoserine 65-4E-BP1 (P-4E-BP1) were evaluated by immunoblot. Decreased levels of both phosphoprotein levels indicated diminished protein synthesis.

[2] = tested on: MDA-MB-468, T47D, MDA-MB-231 and PC3 cells; assay: Cell proliferation by Alamar blue assay, tumor cell lines; settings: four drug concentrations, 40-70 hours of treatment
Experimental: In vitro cell proliferation was quantified by Alamar blue assay. The anti-proliferative effects of four drug concentrations of novel Sigma1 small molecule ligand JMS-51-2nd-58 were quantified after 40-70 hours of treatment. Data are representative of an experiment formed in triplicate for each cell line. FIG. 60A is a graph illustrating cell death in MDA-MB-468 breast adenocarcinoma cell cultures. FIG. 60B is a graph illustrating cell death in T47D breast adenocarcinoma cell cultures. FIG. 60C is a graph illustrating cell death in MDA-MB-231 breast adenocarcinoma cell cultures. FIG. 60D is a graph illustrating cell death in PC3 prostate adenocarcinoma cell cultures.

[3] = tested on: MDA-MB-231 breast adenocarcinoma cells; assay: Alamar blue proliferation assay with bortezomib; settings: ~70 hours
Experimental: FIG. 61, comprising FIGS. 61A-61B, is a set of graphs illustrating the finding that the novel Sigma1 ligand JMS-51-58 potentiated proteasome inhibitor mediated inhibition of tumor cell proliferation. In vitro cell proliferation was quantified by Alamar blue assay. The anti-proliferative effects of four drug concentrations of novel Sigma1 small molecule ligand JMS-51-58, were quantified after ˜70 hours of treatment of MDA-MB-231 breast adenocarcinoma cell cultures. […] Note the shift to the left of the dose-response curve (broken line). Data are representative of an experiment performed in triplicate.

[4] = tested on: MDA-MB-468 and T47D breast adenocarcinoma cells; assay: ER stress response immunoblot (P-p38MAPK, GRP78/BiP); settings: 10 μM, 16 hours
Experimental: FIG. 58A is an image of an immunoblot of MDA-MB-468 breast adenocarcinoma cells treated for 16 hours with 10 μM JMS-51-58. FIG. 58B is an image of an immunoblot of T47D breast adenocarcinoma cells treated for 16 hours with 10 μM JMS-51-58. The levels of phospho-Thr 180/Tyr 182 p38MAPK (P-p38MAPK) and GRP78/BiP and were evaluated by immunoblot.

[5] = tested on: MDA-MB-468 (GFP-LC3), MDA-MB-468 and T47D breast adenocarcinoma cells; assay: Autophagy markers (GFP-LC3II, GFP-LC3 punctae, endogenous LC3II); settings: 10 μM, ~16 hours
Experimental: FIG. 56A is an immunoblot illustrating MDA-MB-468 breast adenocarcinoma cells stably transfected with GFP-LC3 (green fluorescent protein tagged light chain 3, an autophagy marker) treated for ˜16 hours with 10 μM IPAG or 10 μM 1-3 JMS-51-58. The appearance of GFP-LC3II was an indication of autophagosome formation. FIG. 56B is an image illustrating formation of autophagosomes (GFP-LC3 punctae) in MDA468 (GFP-LC3) treated with 10 μM JMS-51-58 as in FIG. 56A. The arrow points to an example of GFP-LC3-positive autophagosomes. The white bar at the bottom of the image indicates 100 μm. FIG. 56C is an image of an immunoblot illustrating the appearance of endogenous LC3II, a marker of autophagosome formation, in MDA-MB-468 breast adenocarcinoma cells treated for 16 hours with 10 μM of JMS-51-58. FIG. 56D is an image of an immunoblot illustrating the appearance of endogenous LC3II, a marker of autophagosome formation, in T47D breast adenocarcinoma cells treated for 16 hours with 10 μM JMS-51-58.

[6] = tested on: MDA-MB-468 and MDA-MB-231 breast adenocarcinoma cells; assay: Poly-ubiquitylated protein immunoblot, breast adenocarcinoma cells; settings: 10 μM, 16 hours, MDA-MB-468 and MDA-MB-231
Experimental: FIG. 34A is an image of an immunoblot of MDA-MB-468 breast adenocarcinoma cells treated with 10 μM Sigma1 antagonist (IPAG) for the indicated times, up to 24 hours. Total cell lysates were resolved by SDS-PAGE and immunoblotted with a poly-ubiquitin antibody P4D1. FIG. 34B is an image of an immunoblot of HepG2 hepatocellular carcinoma cells treated for 20 hours with 10 μM of indicated Sigma1 ligands.
FIG. 59, comprising FIGS. 59A-59B, illustrates the finding that the novel Sigma1 ligand JMS-51-58 modulated the ubiquitin proteasome system. FIG. 59A is an image of an immunoblot evaluating the levels of poly-ubiquitylated proteins of MDA-MB-468 breast adenocarcinoma treated for 16 hours with 10 μM of JMS-51-58. FIG. 59B is an image of an immunoblot evaluating the levels of poly-ubiquitylated proteins of MDA-MB-231 breast adenocarcinoma cells treated for 16 hours with 10 μM of JMS-51-58. The levels of poly-ubiquitylated proteins were evaluated by immunoblot.

MDA-MB-231 and PC3 cells = assay: In vitro cell adhesion by Alamar blue assay; settings: 16 hours in the presence of drug
Experimental: In vitro cell adhesion was quantified by Alamar blue assay. MDA-MB-231 and PC3 cells were detached with 0.25% trypsin+2 mM EDTA and reseeded onto 96 well plates. At the time of cell seeding, IPAG (Sigma1 putative antagonist) was added at the indicated doses to wells containing adenocarcinoma cells. The suspended cells were allowed to sediment and adhere for 16 hours in the presence of drug. Subsequently, the culture medium was removed by aspiration, each well washed once with 0.2 ml PBS (without calcium and magnesium), and Alamar blue assay was performed to quantify the number of live cells adhered to the surface of each well. FIG. 63A is a graph illustrating cell adherence in MDA-MB-231 breast adenocarcinoma cells. FIG. 63B is a graph illustrating cell adherence in PC3 prostate adenocarcinoma cells. The same procedure was performed using the indicated concentrations of JMS-51-58. FIG. 63C is a graph illustrating cell adherence in MDA-MB-231 breast adenocarcinoma cells. FIG. 63D is a graph illustrating cell adherence in PC3 prostate adenocarcinoma cells. Standard deviation bars are shown.

SMILES: N=C(NCCCOc1ccc(F)cc1)Nc1ccc(I)cc1 [JMS-51-58, 1-(3-(4-fluorophenoxy)propyl)-3-(4-iodophenyl)guanidine]
- potentiation of proteasome inhibitor (bortezomib) mediated cell death (MDA-MB-468 cells): potentiated proteasome inhibitor mediated tumor cell death
- translational arrest (decreased P-S6K and P-4E-BP1) [1]: mediated translational arrest
- tumor cell proliferation [2]: inhibited tumor cell proliferation
- cell proliferation and rates of cell death ([3]; 3 μM): did not alter cell proliferation or rates of cell death
- potentiation of bortezomib (BTZ) inhibition of cell proliferation ([3]; sub-lethal dose (3 μM)): potentiated the cell proliferation inhibiting effects of bortezomib
- ER stress response [4]: mediated ER stress response
- induction of autophagy [5]: induced autophagy
- levels of poly-ubiquitylated proteins [6]: increased ubiquitylated protein levels compared to the DMSO control
- cell adhesion (MDA-MB-231 and PC3 cells): inhibited adhesion of metastatic breast and prostate adenocarcinoma cell lines
